Results reported in US11719488B2, “Lyophilization process and a teverelix-TFA lyophilizate obtained thereby” (Antev Limited, priority 2018, dated 2023).
Where a name gives a salt, the structure may show the parent alone. Non-standard residues stand in square brackets, D forms with d. Residues, ends and D or L forms follow the SMILES beside them. dPhe(4-Cl) = N[C@H](Cc1ccc(Cl)cc1)C(=O)O; d2Nal = N[C@H](Cc1ccc2ccccc2c1)C(=O)O; d(hCit) = NC(=O)NCCCC[C@@H](N)C(=O)O; Lys(iPr) = CC(C)NCCCC[C@H](N)C(=O)O; d3Pal = N[C@H](Cc1cccnc1)C(=O)O

Assay: Solubility of teverelix-TFA
Type: physicochemical

CC(=O)N[C@H](Cc1ccc2ccccc2c1)C(=O)N[C@H](Cc1ccc(Cl)cc1)C(=O)N[C@H](Cc1cccnc1)C(=O)N[C@@H](CO)C(=O)N[C@@H](Cc1ccc(O)cc1)C(=O)N[C@H](CCCCNC(N)=O)C(=O)N[C@@H](CC(C)C)C(=O)N[C@@H](CCCCNC(C)C)C(=O)N1CCC[C@H]1C(=O)N[C@H](C)C(N)=O [Teverelix-TFA, Ac-D-Nal-D-pClPhe-D-Pal-Ser-Tyr-D-Hci-Leu-Lys(iPr)-Pro-D-Ala-NH2] (Ac-[d2Nal][dPhe(4-Cl)][d3Pal]SY[d(hCit)]L[Lys(iPr)]P[dA]-NH2)
solubility in water: very low solubility in water
